In patent publication US20240174690A1, “ANNULATED 2-AMINO-3-CYANO THIOPHENES AND DERIVATIVES FOR THE TREATMENT OF CANCER” (BOEHRINGER INGELHEIM INTERNATIONAL GMBH, priority 2021, published 2024):
pIC50: −log10 of the molar value.

What was measured:
KRAS (G12C)::SOS1 = KRAS (G12C)::SOS1 (Homo sapiens (Human), UniProt P01116, C118S/C51S/C80L/G12C); test: KRAS::SOS1 AlphaScreen binding assay, KRAS G12C
Text: (§1) This assay can be used to examine the potency with which compounds according to the invention binding to (mutated) KRAS inhibit the protein-protein interaction between SOS1 and (mutated) KRAS e.g., KRAS WT, KRAS G12C, KRAS G12D, KRAS G12V, KRAS G13D. […] Low IC50 values in this assay setting are indicative of strong inhibition of protein-protein interaction between SOS1 and KRAS:
(§2) These assays measure the inhibitory effect of compounds on KRAS mutant protein-protein interactions using the Alpha Screen technology by Perkin Elmer.
(§3) The following (mutant) enzyme forms of KRAS and interacting proteins are used in these assays at the given concentrations: • KRAS (G12D) 1-169, N-terminal 6His-tag, C-terminal avi-tag (Xtal BioStructures, Inc.); final assay concentration 10 nM and SOS1 564-1049, N-terminal 229 GST-tag, TEV cleavage site (Viva Biotech Ltd); final assay concentration 5 nM; • KRAS (G12C) 1-169, N-terminal 6His-tag for purification, cleaved off, C-terminal avi-tag, biotinylated, mutations: C51S, C80L, C118S (in house); final assay concentration 7.5 nM and SOS1 564-1049, N-terminal 229 GST-tag, TEV cleavage site (Viva Biotech Ltd); final assay concentration 5 nM; • KRAS (G12V) 1-169, N-terminal 6His-tag for purification, cleaved off, C-terminal avi-tag, biotinylated, TEV cleavage site, mutation: C118S, GDP loaded (in house); final assay concentration 10 nM and SOS1 564-1049, N-terminal 229 GST-tag, TEV cleavage site (Viva Biotech Ltd); final assay concentration 10 nM; • KRAS (G13D) 1-169, N-terminal 6His-tag for purification, cleaved off, C-terminal avi-tag, biotinylated, TEV cleavage site, mutation: C118S, GDP loaded (in house); final assay concentration 10 nM and SOS1 564-1049, N-terminal 229 GST-tag, TEV cleavage site (Viva Biotech Ltd); final assay concentration 10 nM; • KRAS (WT) 1-169, N-terminal 6His-tag for purification, cleaved off, C-terminal avi-tag, biotinylated, TEV cleavage site, mutation: C118S, GDP loaded (in house); final assay concentration 10 nM and SOS1 564-1049, N-terminal 229 GST-tag, TEV cleavage site (Viva Biotech Ltd); final assay concentration 10 nM.
(§4) Test compounds dissolved in DMSO are dispensed onto assay plates (Proxiplate 384 PLUS, white, PerkinElmer; 6008289) using an Access Labcyte Workstation with the Labcyte Echo 55×. For the chosen highest assay concentration of 100 μM, 150 nL of compound solution are transferred from a 10 mM DMSO compound stock solution. A series of eleven fivefold dilutions per compound are transferred to the assay plate, compound dilutions are tested in duplicates. DMSO are added as backfill to a total volume of 150 nL.
(§5) The assays run on a fully automated robotic system in a darkened room below 100 Lux. To 150 nl of compound dilution 10 μl of a mix including KRAS mutant protein, SOS1 (final assay concentrations see above) and GDP nucleotide (Sigma G7127; final assay concentration 10 μM) in assay buffer (1×PBS, 0.1% BSA, 0.05% Tween 20) are added into columns 1-24.
(§6) After 30 minutes incubation time 5 μl of Alpha Screen bead mix in assay buffer are added into columns 1-23. Bead mix consists of AlphaLISA Glutathione Acceptor Beads (PerkinElmer, Cat No AL109) and AlphaScreen Streptavidin Donor Beads (PerkinElmer Cat No 6760002) in assay buffer at a final assay concentration of 10 μg/ml each.
(§7) Plates are kept at room temperature in a darkened incubator. After an additional 60 minutes incubation time the signal is measured in a PerkinElmer Envision HTS Multilabel Reader using the AlphaScreen specs from PerkinElmer.
(§8) Each plate contains up to 16 wells of a negative control depending on the dilution procedure (platewise or serial) (DMSO instead of test compound; with KRAS mutant::SOS1 GDP mix and bead mix; column 23) and 16 wells of a positive control (DMSO instead of test compound; with KRAS mutant::SOS1 GDP mix w/o bead mix; column 24).
(§9) As internal control known inhibitors of KRAS mutant::SOS1 interaction can be measured on each compound plate. […]

[1] = Metabolic (microsomal) stability assay, human liver microsomes (HLM); format: in vitro ADME; conditions: predicted clearance as percent of liver blood flow, 1 μM
Experimental: The metabolic degradation of the test compound is assayed at 37° C. with pooled liver microsomes (mouse (MLM), rat (RLM) or human (HLM)). The final incubation volume of 48 μL pertime point contains TRIS buffer (pH 7.5; 0.1 M), magnesium chloride (6.5 mM), microsomal protein (0.5 mg/mL for mouse/rat, 1 mg/mL for human specimens) and the test compound at a final concentration of 1 μM. Following a short preincubation period at 37° C., the reactions are initiated by addition of 12 μL beta-nicotinamide adenine dinucleotide phosphate, reduced form (NADPH, 10 mM) and terminated by transferring an aliquot into solvent after different time points (0, 5, 15, 30, 60 min). Additionally, the NADPH-independent degradation is monitored in incubations without NADPH, terminated at the last time point by addition of acetonitrile. The quenched incubations are pelleted by centrifugation (4,000 rpm, 15 min). An aliquot of the supernatant is assayed by LC-MS/MS to quantify the concentration of parent compound in the individual samples.
In vitro intrinsic clearance (CLint, in vitro) is calculated from the time course of the disappearance of the test drug during the microsomal incubation. Each plot is fitted to the first-order elimination rate constant as C(t)═C0*exp(−ke*t), where C(t) and C0 are the concentration of unchanged test drug at incubation time t and that at preincubation and ke is the disappearance rate constant of the unchanged drug. Subsequently, CLint in vitro (μL min^−1·amount protein) values are converted to predicted CLint,in vivo (mL min^−1 kg^−1) from incubation parameters according to the equation CLint, in vivo=CLint, in vitro×(incubation volume (ml)/amount protein (mg))×(amount protein (mg)/g liver tissue)×(liver weight/body wt.).
For better across species comparison the predicted clearance is expressed as percent of the liver blood flow [% QH] (mL min^−1·kg^−1) in the individual species. In general, high stability (corresponding to low % QH) of the compounds across species is desired.

KRAS (G12D)::SOS1 = KRAS (G12D)::SOS1 (Homo sapiens (Human), UniProt P01116, G12D); test: KRAS::SOS1 AlphaScreen binding assay, KRAS G12D
Text: as §1, §2, §3, §4, §5, §6, §7, §8, §9

Sequence of KRAS (G12C)::SOS1 (P01116 other isoform, or with tags, fused parts or gaps G12C/C51S/C80L/C118S): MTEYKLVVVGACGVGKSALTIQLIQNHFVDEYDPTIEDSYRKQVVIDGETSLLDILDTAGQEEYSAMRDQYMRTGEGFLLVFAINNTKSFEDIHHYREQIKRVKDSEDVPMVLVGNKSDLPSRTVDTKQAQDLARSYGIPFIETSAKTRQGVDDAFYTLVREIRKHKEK
Sequence of KRAS (G12D)::SOS1 (P01116 other isoform, or with tags, fused parts or gaps G12D): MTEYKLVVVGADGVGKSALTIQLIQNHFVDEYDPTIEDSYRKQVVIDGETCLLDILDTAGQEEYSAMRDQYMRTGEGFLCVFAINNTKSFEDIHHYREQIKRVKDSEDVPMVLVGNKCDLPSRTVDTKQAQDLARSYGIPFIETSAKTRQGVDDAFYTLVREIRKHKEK

Row | SMILES | pIC50 (KRAS (G12C)::SOS1) | HLM QH [1] [%] | pIC50 (KRAS (G12D)::SOS1)
1 | C[C@H](Oc1cc(N2CCNC3(CC3)C2)nc(-c2onc3c2CCC[C@@]32CCCc3sc(N)c(C#N)c32)n1)[C@@H]1CCCN1C [I-5] | 8.70 | <24 | 9.00
2 | C[C@H](Oc1cc(N2C[C@H](C)N[C@@H](C)C2)nc(-c2onc3c2CCC[C@@]32CCCc3sc(N)c(C#N)c32)n1)[C@@H]1CCCN1C [I-6] | 8.30 | <24 | 9.00
3 | C[C@H]1CN(C)CCCN1c1cc(N2CCN(C)CC2)nc(-c2onc3c2CCC[C@@]32CCCc3sc(N)c(C#N)c32)n1 [I-7] | 7.64 | <24 | 8.52
4 | C[C@H](Oc1cc(N2C[C@H](C)NC3(CC3)C2)nc(-c2onc3c2CCC[C@@]32CCCc3sc(N)c(C#N)c32)n1)[C@@H]1CCCN1C [I-8] | 8.40 | <24 | 9.00
5 | C[C@H](Oc1cc(N2CCN3CCC3C2)nc(-c2onc3c2CCC[C@@]32CCCc3sc(N)c(C#N)c32)n1)[C@@H]1CCCN1C (stereo partly shown) [I-9] | 8.30 | <24 | 8.70
6 | C[C@H](Oc1cc(N2CCNCC23CCOC3)nc(-c2onc3c2CCC[C@@]32CCCc3sc(N)c(C#N)c32)n1)[C@@H]1CCCN1C (stereo partly shown) [I-10] | 8.52 | 30 | 9.00
7 | C[C@H](Oc1cc(N2CC[C@H](N(C)C)C2)nc(-c2onc3c2CCC[C@@]32CCCc3sc(N)c(C#N)c32)n1)[C@@H]1CCCN1C [I-11] | 8.15 | <24 | 9.00
8 | C[C@H](Oc1cc(N2CC[C@H](N(C)C)C2)nc(-c2noc3c2CCC[C@@]32CCCc3sc(N)c(C#N)c32)n1)[C@@H]1CCCN1C [II-49] | 8.05 | <24 | 9.00
9 | C[C@H](Oc1cc(N2CCNC[C@]23CCOC3)nc(-c2noc3c2CCC[C@@]32CCCc3sc(N)c(C#N)c32)n1)[C@@H]1CCCN1C [II-50] | 8.70 | 52 | 9.00
10 | C[C@H](Oc1cc(N2CCNC[C@@]23CCOC3)nc(-c2noc3c2CCC[C@@]32CCCc3sc(N)c(C#N)c32)n1)[C@@H]1CCCN1C [II-51] | 8.40 | 37 | 9.00
11 | C[C@H](Oc1cc(-n2cc3c(n2)CCNC3)nc(-c2noc3c2CCC[C@@]32CCCc3sc(N)c(C#N)c32)n1)[C@@H]1CCCN1C [II-53] |  | 46 | 9.00
12 | C[C@H](Oc1cc(N2CCNC3(CC3)C2)nc(-c2noc3c2CCC[C@@]32CCCc3sc(N)c(C#N)c32)n1)[C@@H]1CCCN1C [II-54] | 8.70 | 28 | 9.00
13 | C[C@H](Oc1cc(N2CCN(C)CC2)nc(-c2noc3c2CCC[C@@]32CCCc3sc(N)c(C#N)c32)n1)[C@@H]1CCCN1C [II-55] | 8.40 | <24 | 9.00
14 | C[C@H](Oc1cc(N2C[C@H](C)N[C@@H](C)C2)nc(-c2noc3c2CCC[C@@]32CCCc3sc(N)c(C#N)c32)n1)[C@@H]1CCCN1C [II-56] | 8.70 | <24 | 9.00
15 | C[C@H](Oc1cc(N2CCC[C@H](O)C2)nc(-c2noc3c2CCC[C@@]32CCCc3sc(N)c(C#N)c32)n1)[C@@H]1CCCN1C [II-57] | 8.70 | <24 | 8.70
16 | CO[C@@H]1C[C@@H]([C@H](C)Oc2cc(-n3ccnc3)nc(-c3noc4c3CCC[C@@]43CCCc4sc(N)c(C#N)c43)n2)N(C)C1 [II-58] | 8.70 | 46 | 8.52
17 | C[C@H](Oc1cc(N2CCC[C@@H](O)C2)nc(-c2noc3c2CCC[C@@]32CCCc3sc(N)c(C#N)c32)n1)[C@@H]1CCCN1C [II-59] | 8.70 | <24 | 8.70
18 | C[C@H](Oc1cc(N2CCOC3(CC3)C2)nc(-c2noc3c2CCC[C@@]32CCCc3sc(N)c(C#N)c32)n1)[C@@H]1CCCN1C [II-61] | 8.70 | <24 | 8.52
19 | CO[C@@H]1C[C@@H]([C@H](C)Oc2cc(-c3cnn(C)n3)nc(-c3noc4c3CCC[C@@]43CCCc4sc(N)c(C#N)c43)n2)N(C)C1 [II-62] | 8.52 | 58 | 8.15
20 | C[C@H](Oc1cc(N2Cc3cnn(C)c3C2)nc(-c2noc3c2CCC[C@@]32CCCc3sc(N)c(C#N)c32)n1)[C@@H]1CCCN1C [II-63] | 8.52 | <24 | 7.92
21 | C[C@H](Oc1cc(N2CCNC2=O)nc(-c2noc3c2CCC[C@@]32CCCc3sc(N)c(C#N)c32)n1)[C@@H]1CCCN1C [II-64] | 8.70 | 27 | 9.00
22 | C[C@H](Oc1cc(-n2cnc3cccnc32)nc(-c2noc3c2CCC[C@@]32CCCc3sc(N)c(C#N)c32)n1)[C@@H]1CCCN1C [II-65] | 8.40 | <24 | 8.05
23 | C[C@H](Oc1cc(N2CC[C@@H](O)C2)nc(-c2noc3c2CCC[C@@]32CCCc3sc(N)c(C#N)c32)n1)[C@@H]1CCCN1C [II-66] | 8.70 | <24 | 9.00
24 | C[C@H](Oc1cc(C2=CCOCC2)nc(-c2noc3c2CCC[C@@]32CCCc3sc(N)c(C#N)c32)n1)[C@@H]1CCCN1C [II-67] | 8.70 | <24 | 8.52
25 | Cc1cn(C)nc1-c1cc(O[C@@H](C)[C@@H]2CCCN2C)nc(-c2noc3c2CCC[C@@]32CCCc3sc(N)c(C#N)c32)n1 [II-68] | 8.70 | <24 | 8.05
26 | C[C@H](Oc1cc(-n2cncc3ccnc2-3)nc(-c2noc3c2CCC[C@@]32CCCc3sc(N)c(C#N)c32)n1)[C@@H]1CCCN1C [II-105] | 8.70 |  | 8.70
